Results as given in ChEMBL document CHEMBL4507280 (2021).

How the values were obtained:
[1] = target: Serine/threonine-protein kinase tousled-like 1 (Homo sapiens) (UniProt Q9UKI8); conditions: Compound concentration 1000.0 nM
[2] = target: Cyclin-dependent kinase 13 (Homo sapiens) (UniProt Q14004); conditions: Compound concentration 1000.0 nM
[3] = target: Cyclin-dependent kinase 7 (Homo sapiens) (UniProt P50613); conditions: Compound concentration 1000.0 nM
[4] = target: Serine/threonine-protein kinase ICK (Homo sapiens) (UniProt Q9UPZ9); conditions: Compound concentration 1000.0 nM
[5] = target: SRSF protein kinase 1 (Homo sapiens) (UniProt Q96SB4); conditions: Compound concentration 1000.0 nM
[6] = system: ALK tyrosine kinase receptor (Homo sapiens), Q9UM73 [C1156Y]; conditions: Compound concentration 1000.0 nM
[7] = target: Serine/threonine-protein kinase mTOR (Homo sapiens) (UniProt P42345); conditions: Compound concentration 1000.0 nM
[8] = target: Receptor tyrosine-protein kinase erbB-2 (Homo sapiens) (UniProt P04626); conditions: Compound concentration 1000.0 nM
[9] = target: Mitogen-activated protein kinase kinase kinase 19 (Homo sapiens) (UniProt Q56UN5); conditions: Compound concentration 1000.0 nM
[10] = system: Mast/stem cell growth factor receptor Kit (Homo sapiens), P10721 [D816H]; conditions: Compound concentration 1000.0 nM
[11] = target: Cyclin-G-associated kinase (Homo sapiens) (UniProt O14976); conditions: Compound concentration 1000.0 nM
[12] = target: Fibroblast growth factor receptor 2 (Homo sapiens) (UniProt P21802); conditions: Compound concentration 1000.0 nM
[13] = target: Protein kinase C delta type (Homo sapiens) (UniProt Q05655); conditions: Compound concentration 1000.0 nM
[14] = system: Receptor-type tyrosine-protein kinase FLT3 (Homo sapiens), P36888 [D835V]; conditions: Compound concentration 1000.0 nM
[15] = target: Tyrosine-protein kinase ABL2 (Homo sapiens) (UniProt P42684); conditions: Compound concentration 1000.0 nM
[16] = target: Protein kinase C iota type (Homo sapiens) (UniProt P41743); conditions: Compound concentration 1000.0 nM
[17] = system: Epidermal growth factor receptor (Homo sapiens), P00533 [L861Q]; conditions: Compound concentration 1000.0 nM
[18] = target: Calcium/calmodulin-dependent protein kinase type 1 (Homo sapiens) (UniProt Q14012); conditions: Compound concentration 1000.0 nM
[19] = target: Proto-oncogene tyrosine-protein kinase receptor Ret (Homo sapiens) (UniProt P07949); conditions: Compound concentration 1000.0 nM
[20] = target: T1, Muscarinic acetylcholine receptor M2 (Homo sapiens) (UniProt P08172); conditions: Compound concentration 10.0 uM
T1 sequence (whole entry): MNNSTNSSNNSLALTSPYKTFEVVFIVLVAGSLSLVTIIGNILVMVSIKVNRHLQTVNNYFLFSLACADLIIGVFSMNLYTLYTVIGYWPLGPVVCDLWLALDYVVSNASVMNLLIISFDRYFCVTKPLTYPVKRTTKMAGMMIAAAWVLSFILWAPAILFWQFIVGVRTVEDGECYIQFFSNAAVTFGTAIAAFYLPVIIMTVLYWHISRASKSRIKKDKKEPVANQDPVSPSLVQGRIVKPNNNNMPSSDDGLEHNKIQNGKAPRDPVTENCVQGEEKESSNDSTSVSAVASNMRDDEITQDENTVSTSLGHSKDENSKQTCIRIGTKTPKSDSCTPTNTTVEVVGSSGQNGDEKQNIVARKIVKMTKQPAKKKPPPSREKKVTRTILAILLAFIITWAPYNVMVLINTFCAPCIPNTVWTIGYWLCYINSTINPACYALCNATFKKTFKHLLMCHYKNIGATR

[21] = target: Serine/threonine-protein kinase ULK3 (Homo sapiens) (UniProt Q6PHR2); conditions: Compound concentration 1000.0 nM
[22] = target: Myosin light chain kinase family member 4 (Homo sapiens) (UniProt Q86YV6); conditions: Compound concentration 1000.0 nM
[23] = target: Serine/threonine-protein kinase WNK3 (Homo sapiens) (UniProt Q9BYP7); conditions: Compound concentration 1000.0 nM
[24] = target: Fibroblast growth factor receptor 3 (Homo sapiens) (UniProt P22607); conditions: Compound concentration 1000.0 nM
[25] = target: RAC-beta serine/threonine-protein kinase (Homo sapiens) (UniProt P31751); conditions: Compound concentration 1000.0 nM
[26] = target: Testis-specific serine/threonine-protein kinase 1 (Homo sapiens) (UniProt Q9BXA7); conditions: Compound concentration 1000.0 nM
[27] = target: Cyclin-dependent kinase 4 (Homo sapiens) (UniProt P11802); conditions: Compound concentration 1000.0 nM
[28] = target: Serine/threonine-protein kinase RIO1 (Homo sapiens) (UniProt Q9BRS2); conditions: Compound concentration 1000.0 nM
[29] = target: D(4) dopamine receptor (Homo sapiens) (UniProt P21917); conditions: Compound concentration 10.0 uM
[30] = target: Cyclin-dependent kinase-like 1 (Homo sapiens) (UniProt Q00532); conditions: Compound concentration 1000.0 nM
[31] = target: Serine/threonine-protein kinase NIM1 (Homo sapiens) (UniProt Q8IY84); conditions: Compound concentration 1000.0 nM
[32] = target: RAF proto-oncogene serine/threonine-protein kinase (Homo sapiens) (UniProt P04049); conditions: Compound concentration 1000.0 nM
[33] = system: ALK tyrosine kinase receptor (Homo sapiens), Q9UM73 [L1196M]; conditions: Compound concentration 1000.0 nM
[34] = target: Non-receptor tyrosine-protein kinase TNK1 (Homo sapiens) (UniProt Q13470); conditions: Compound concentration 1000.0 nM
[35] = system: Epidermal growth factor receptor (Homo sapiens), P00533 [L858R,T790M]; conditions: Compound concentration 1000.0 nM
[36] = target: Interleukin-1 receptor-associated kinase 4 (Homo sapiens) (UniProt Q9NWZ3); conditions: Compound concentration 1000.0 nM
[37] = target: Serine/threonine-protein kinase/endoribonuclease IRE1 (Homo sapiens) (UniProt O75460); conditions: Compound concentration 1000.0 nM
[38] = target: Receptor tyrosine-protein kinase erbB-3 (Homo sapiens) (UniProt P21860); conditions: Compound concentration 1000.0 nM
[39] = target: Mitogen-activated protein kinase kinase kinase 10 (Homo sapiens) (UniProt Q02779); conditions: Compound concentration 1000.0 nM

Serine/threonine-protein kinase ICK (Homo sapiens), sequence (Q9UPZ9 whole entry): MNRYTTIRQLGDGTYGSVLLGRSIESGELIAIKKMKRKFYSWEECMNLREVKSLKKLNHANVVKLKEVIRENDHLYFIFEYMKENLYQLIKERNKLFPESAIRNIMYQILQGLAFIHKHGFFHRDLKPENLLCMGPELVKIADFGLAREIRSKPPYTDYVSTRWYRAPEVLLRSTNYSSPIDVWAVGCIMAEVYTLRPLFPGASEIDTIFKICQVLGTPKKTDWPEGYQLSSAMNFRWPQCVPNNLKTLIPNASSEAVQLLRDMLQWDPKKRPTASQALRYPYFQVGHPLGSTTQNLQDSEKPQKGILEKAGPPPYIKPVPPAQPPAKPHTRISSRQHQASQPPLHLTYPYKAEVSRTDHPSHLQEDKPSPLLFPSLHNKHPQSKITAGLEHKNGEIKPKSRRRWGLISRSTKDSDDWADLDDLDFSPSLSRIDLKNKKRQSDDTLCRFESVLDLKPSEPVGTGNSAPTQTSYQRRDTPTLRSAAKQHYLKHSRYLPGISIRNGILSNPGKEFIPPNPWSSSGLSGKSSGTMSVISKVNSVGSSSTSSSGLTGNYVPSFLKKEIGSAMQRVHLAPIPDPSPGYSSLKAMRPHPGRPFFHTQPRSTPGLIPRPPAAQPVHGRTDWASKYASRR
Serine/threonine-protein kinase WNK3 (Homo sapiens), sequence (Q9BYP7 whole entry): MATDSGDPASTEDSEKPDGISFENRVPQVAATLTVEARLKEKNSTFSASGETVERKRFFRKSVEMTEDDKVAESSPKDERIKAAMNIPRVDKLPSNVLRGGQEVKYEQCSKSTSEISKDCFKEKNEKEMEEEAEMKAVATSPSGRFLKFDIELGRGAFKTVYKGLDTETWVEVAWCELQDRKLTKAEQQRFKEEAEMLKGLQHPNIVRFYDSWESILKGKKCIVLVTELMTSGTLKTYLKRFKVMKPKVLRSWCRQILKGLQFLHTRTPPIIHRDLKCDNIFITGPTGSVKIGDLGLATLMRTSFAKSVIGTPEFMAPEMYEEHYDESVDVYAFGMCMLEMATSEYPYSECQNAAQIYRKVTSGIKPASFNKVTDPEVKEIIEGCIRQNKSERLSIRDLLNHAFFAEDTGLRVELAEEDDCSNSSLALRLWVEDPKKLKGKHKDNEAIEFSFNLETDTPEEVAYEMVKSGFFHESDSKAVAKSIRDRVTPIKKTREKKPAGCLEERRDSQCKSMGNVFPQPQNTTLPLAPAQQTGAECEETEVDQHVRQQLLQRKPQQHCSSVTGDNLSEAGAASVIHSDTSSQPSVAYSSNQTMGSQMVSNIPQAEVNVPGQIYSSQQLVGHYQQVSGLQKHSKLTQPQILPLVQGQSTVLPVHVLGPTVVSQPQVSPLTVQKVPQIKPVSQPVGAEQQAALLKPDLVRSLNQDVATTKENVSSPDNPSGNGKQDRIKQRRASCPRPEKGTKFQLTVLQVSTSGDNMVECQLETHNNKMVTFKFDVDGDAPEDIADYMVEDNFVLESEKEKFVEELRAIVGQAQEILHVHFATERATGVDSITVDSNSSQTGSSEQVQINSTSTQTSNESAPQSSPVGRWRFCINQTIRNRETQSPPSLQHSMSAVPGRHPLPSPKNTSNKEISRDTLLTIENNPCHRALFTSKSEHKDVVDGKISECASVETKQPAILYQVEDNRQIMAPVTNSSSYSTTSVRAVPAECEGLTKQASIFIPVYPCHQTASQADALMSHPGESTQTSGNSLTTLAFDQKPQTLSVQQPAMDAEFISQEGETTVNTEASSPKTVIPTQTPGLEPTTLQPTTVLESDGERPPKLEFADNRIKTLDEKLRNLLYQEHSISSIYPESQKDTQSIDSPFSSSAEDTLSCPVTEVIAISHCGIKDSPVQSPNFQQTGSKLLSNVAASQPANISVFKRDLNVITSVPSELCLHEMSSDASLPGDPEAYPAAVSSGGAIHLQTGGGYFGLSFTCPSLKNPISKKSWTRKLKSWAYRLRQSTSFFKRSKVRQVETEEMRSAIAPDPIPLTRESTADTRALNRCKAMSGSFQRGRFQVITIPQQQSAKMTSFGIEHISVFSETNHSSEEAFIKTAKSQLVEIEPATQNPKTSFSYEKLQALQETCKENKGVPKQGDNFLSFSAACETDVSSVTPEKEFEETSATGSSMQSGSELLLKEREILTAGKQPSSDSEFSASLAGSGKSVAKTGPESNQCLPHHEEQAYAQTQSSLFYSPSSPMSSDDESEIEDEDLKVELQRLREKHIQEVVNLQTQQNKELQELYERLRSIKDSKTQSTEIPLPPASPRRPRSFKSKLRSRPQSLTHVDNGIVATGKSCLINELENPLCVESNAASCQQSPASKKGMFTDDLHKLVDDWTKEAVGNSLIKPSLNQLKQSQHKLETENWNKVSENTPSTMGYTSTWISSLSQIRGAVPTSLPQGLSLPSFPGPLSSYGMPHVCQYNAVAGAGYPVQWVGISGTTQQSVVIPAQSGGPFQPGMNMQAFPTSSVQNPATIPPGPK
ALK tyrosine kinase receptor (Homo sapiens), Q9UM73 [C1156Y], sequence (Q9UM73 whole entry C1156Y, looked up): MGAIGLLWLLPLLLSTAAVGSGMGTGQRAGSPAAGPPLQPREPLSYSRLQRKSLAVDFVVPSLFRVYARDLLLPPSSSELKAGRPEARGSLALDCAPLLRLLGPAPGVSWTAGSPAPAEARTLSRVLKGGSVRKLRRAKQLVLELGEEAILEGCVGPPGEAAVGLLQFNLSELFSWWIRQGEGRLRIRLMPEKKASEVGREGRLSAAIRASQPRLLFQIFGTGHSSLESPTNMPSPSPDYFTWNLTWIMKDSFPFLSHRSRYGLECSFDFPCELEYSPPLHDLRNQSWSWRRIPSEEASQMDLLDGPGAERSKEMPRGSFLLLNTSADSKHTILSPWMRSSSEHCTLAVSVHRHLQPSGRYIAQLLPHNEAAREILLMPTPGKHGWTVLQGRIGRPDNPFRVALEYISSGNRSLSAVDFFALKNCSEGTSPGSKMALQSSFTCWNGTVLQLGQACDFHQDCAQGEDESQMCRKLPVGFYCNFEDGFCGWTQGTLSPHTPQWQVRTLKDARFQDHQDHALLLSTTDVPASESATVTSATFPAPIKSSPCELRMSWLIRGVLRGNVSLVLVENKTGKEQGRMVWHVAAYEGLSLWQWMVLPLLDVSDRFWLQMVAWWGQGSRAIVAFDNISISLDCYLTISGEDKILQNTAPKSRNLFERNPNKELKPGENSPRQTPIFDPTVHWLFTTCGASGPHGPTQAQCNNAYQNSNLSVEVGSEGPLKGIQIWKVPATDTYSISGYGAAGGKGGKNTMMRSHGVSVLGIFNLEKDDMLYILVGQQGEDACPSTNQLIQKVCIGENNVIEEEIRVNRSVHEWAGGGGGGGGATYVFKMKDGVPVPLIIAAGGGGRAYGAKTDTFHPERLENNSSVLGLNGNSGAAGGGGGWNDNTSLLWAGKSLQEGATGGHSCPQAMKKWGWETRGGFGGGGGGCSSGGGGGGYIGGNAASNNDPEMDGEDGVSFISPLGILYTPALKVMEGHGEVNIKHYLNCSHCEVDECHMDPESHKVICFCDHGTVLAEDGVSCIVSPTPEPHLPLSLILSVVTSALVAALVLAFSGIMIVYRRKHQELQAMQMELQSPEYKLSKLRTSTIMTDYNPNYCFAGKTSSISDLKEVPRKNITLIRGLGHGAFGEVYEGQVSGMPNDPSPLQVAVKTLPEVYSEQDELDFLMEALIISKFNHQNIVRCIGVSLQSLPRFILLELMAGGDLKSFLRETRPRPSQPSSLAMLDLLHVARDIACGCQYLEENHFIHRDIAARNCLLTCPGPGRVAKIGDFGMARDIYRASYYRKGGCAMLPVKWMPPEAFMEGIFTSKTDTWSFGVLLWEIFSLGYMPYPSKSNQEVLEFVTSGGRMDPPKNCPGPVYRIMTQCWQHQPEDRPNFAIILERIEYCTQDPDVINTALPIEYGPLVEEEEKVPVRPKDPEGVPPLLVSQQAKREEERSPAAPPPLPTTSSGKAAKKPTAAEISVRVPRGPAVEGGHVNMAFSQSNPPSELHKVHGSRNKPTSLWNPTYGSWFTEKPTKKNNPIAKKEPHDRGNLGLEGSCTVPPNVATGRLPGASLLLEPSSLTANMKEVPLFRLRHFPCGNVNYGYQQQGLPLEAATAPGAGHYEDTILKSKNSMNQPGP
SRSF protein kinase 1 (Homo sapiens), sequence (Q96SB4 whole entry): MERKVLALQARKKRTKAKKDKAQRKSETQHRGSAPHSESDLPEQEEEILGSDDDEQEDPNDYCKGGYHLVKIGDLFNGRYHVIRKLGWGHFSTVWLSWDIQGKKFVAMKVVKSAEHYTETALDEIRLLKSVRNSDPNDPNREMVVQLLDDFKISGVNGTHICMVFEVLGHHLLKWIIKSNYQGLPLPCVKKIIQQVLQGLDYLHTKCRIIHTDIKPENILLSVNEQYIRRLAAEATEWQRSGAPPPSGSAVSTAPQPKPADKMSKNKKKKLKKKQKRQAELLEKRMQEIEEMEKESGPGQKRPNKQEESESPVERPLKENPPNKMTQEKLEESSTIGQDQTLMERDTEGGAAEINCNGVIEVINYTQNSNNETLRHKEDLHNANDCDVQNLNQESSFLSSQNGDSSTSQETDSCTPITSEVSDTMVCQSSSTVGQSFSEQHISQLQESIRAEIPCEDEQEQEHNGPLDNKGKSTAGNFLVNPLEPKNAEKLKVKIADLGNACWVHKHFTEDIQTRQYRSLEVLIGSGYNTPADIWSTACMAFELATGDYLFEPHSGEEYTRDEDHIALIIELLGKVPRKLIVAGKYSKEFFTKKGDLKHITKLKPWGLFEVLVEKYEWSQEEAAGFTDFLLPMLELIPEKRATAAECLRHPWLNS
Cyclin-dependent kinase-like 1 (Homo sapiens), sequence (Q00532 whole entry): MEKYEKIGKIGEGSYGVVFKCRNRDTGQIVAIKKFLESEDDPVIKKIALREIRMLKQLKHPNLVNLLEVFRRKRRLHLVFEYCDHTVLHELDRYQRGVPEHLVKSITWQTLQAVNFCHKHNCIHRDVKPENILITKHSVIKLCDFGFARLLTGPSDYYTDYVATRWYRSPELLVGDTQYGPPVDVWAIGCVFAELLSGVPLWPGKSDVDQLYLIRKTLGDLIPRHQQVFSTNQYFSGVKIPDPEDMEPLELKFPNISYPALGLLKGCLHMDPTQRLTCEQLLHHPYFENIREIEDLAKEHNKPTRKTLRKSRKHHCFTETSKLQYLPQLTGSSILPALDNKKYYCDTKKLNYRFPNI
ALK tyrosine kinase receptor (Homo sapiens), Q9UM73 [L1196M], sequence (Q9UM73 whole entry L1196M, looked up): as the sequence (Q9UM73 whole entry C1156Y, looked up) above, with Y1156C, L1196M counted along it

CCC(=O)N[C@@H]1CC[C@H](C(=O)N(C)c2ccc(-c3nc4ccccc4o3)cc2)C1 [BI 99990]
inactive: residual activity [1] 100% | residual activity [2] 100% | residual activity [3] 85% | residual activity [4] 92% | residual activity [5] 100% | residual activity [6] 100% | residual activity [7] 99% | residual activity [8] 100% | residual activity [9] 92% | residual activity [10] 100% | residual activity [11] 100% | residual activity [12] 86% | residual activity [13] 89% | residual activity [14] 92% | residual activity [15] 100% | residual activity [16] 84% | residual activity [17] 95% | residual activity [18] 100% | residual activity [19] 93% | inhibition [20] 17.9% | residual activity [21] 66% | residual activity [22] 100% | residual activity [23] 100% | residual activity [24] 100% | residual activity [25] 72% | residual activity [26] 76% | residual activity [27] 100% | residual activity [28] 100% | inhibition [29] 16.4% | residual activity [30] 90% | residual activity [31] 99% | residual activity [32] 94% | residual activity [33] 100% | residual activity [34] 100% | residual activity [35] 100% | residual activity [36] 100% | residual activity [37] 100% | residual activity [38] 100% | residual activity [39] 78%

CCC(=O)N[C@H]1CC[C@@H](C(=O)N(C)c2ccc(-c3nc4ccccc4o3)cc2)C1 [BI 99179]
inactive: residual activity [1] 84% | residual activity [2] 100% | residual activity [3] 79% | residual activity [4] 70% | residual activity [5] 100% | residual activity [6] 100% | residual activity [7] 92% | residual activity [8] 100% | residual activity [9] 69% | residual activity [10] 85% | residual activity [11] 100% | residual activity [12] 91% | residual activity [13] 100% | residual activity [14] 73% | residual activity [15] 100% | residual activity [16] 92% | residual activity [17] 100% | residual activity [18] 95% | residual activity [19] 92% | inhibition [20] 4.58% | residual activity [21] 67% | residual activity [22] 100% | residual activity [23] 92% | residual activity [24] 98% | residual activity [25] 89% | residual activity [26] 91% | residual activity [27] 88% | residual activity [28] 99% | inhibition [29] 11.2% | residual activity [30] 95% | residual activity [31] 88% | residual activity [32] 100% | residual activity [33] 93% | residual activity [34] 100% | residual activity [35] 100% | residual activity [36] 87% | residual activity [37] 91% | residual activity [38] 100% | residual activity [39] 91%
